biological target: Melanocortin receptor 3 (Homo sapiens, UniProt P41968); test: not given; format: cell membranes, Membrane; settings: hek293; also: in other assays of this panel Not Active means under 50% inhibition at 10 µM
Sequence (P41968 whole entry): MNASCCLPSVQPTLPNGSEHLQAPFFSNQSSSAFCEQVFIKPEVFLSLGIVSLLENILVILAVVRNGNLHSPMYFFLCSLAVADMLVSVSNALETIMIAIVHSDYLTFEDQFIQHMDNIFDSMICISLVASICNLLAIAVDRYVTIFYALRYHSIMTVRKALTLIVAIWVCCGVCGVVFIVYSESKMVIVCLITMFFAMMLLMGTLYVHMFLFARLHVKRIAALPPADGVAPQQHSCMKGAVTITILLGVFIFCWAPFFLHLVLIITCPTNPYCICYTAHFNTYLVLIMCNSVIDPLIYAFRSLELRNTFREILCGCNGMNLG

Row | SMILES | IC50
1 | COc1ccc2c(c1)c(CC(=O)OCC(=O)O)c(C)n2C(=O)c1ccc(Cl)cc1 [ACEMETACIN] | Not Active
2 | CC1(C)S[C@@H]2[C@H](NC(=O)[C@H](NC(=O)N3CCNC3=O)c3ccccc3)C(=O)N2[C@H]1C(=O)O [AZLOCILLIN] | Not Active
3 | CCOC(=O)OC(C)OC1=C(C(=O)Nc2ccccn2)N(C)S(=O)(=O)c2ccccc21 (stereo unspecified) [AMPIROXICAM] | Not Active

test system: not listed separately; test: DRUGMATRIX: Calcium Channel Type L, Phenylalkylamine radioligand binding (ligand: [3H] (-)-Desmethoxyverapamil (D-888)); format: cell membranes, Rattus norvegicus, Wistar, Brain, Membrane; settings: Not Active = under 50% inhibition at 10 µM

Row | SMILES | IC50 | Ki
4 | COc1ccc2c(c1)c(CC(=O)OCC(=O)O)c(C)n2C(=O)c1ccc(Cl)cc1 [ACEMETACIN] | Not Active | Not Active
5 | CC1(C)S[C@@H]2[C@H](NC(=O)[C@H](NC(=O)N3CCNC3=O)c3ccccc3)C(=O)N2[C@H]1C(=O)O [AZLOCILLIN] | Not Active | Not Active
6 | CCOC(=O)OC(C)OC1=C(C(=O)Nc2ccccn2)N(C)S(=O)(=O)c2ccccc21 (stereo unspecified) [AMPIROXICAM] | Not Active | Not Active

biological target: T1, Interstitial collagenase (Homo sapiens, UniProt P03956); test: not given; format: tissue-based, Rheumatoid synovial fibroblasts; settings: not given;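 also: MMP-1 enzyme inhibition assay using a peptide substrate; in other assays of this panel Not Active means under 50% inhibition at 10 µM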
T1 sequence (P03956 whole entry): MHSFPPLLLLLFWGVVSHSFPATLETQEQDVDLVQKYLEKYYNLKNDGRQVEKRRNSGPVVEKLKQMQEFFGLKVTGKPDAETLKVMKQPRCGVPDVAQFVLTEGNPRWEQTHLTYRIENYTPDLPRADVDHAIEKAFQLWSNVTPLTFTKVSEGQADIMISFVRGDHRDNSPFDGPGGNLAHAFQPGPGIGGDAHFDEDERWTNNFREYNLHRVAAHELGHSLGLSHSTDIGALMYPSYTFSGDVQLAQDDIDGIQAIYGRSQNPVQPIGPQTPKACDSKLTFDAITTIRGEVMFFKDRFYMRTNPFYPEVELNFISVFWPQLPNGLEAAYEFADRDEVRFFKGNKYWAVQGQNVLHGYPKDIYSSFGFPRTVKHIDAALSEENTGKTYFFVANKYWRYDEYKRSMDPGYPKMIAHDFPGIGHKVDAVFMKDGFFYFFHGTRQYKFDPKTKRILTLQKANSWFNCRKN

Row | SMILES | IC50
7 | COc1ccc2c(c1)c(CC(=O)OCC(=O)O)c(C)n2C(=O)c1ccc(Cl)cc1 [ACEMETACIN] | Not Active
8 | CC1(C)S[C@@H]2[C@H](NC(=O)[C@H](NC(=O)N3CCNC3=O)c3ccccc3)C(=O)N2[C@H]1C(=O)O [AZLOCILLIN] | Not Active
9 | CCOC(=O)OC(C)OC1=C(C(=O)Nc2ccccn2)N(C)S(=O)(=O)c2ccccc21 (stereo unspecified) [AMPIROXICAM] | Not Active

biological target: T2, Adenosine receptor A1 (Homo sapiens, UniProt P30542); test: not given; format: cell membranes, CHO, Membrane; settings: cho;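 also: radioligand binding assay at the adenosine A1 receptor, with DPCPX serving as the labelled ligand; in other assays of this panel Not Active means under 50% inhibition at 10 µM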
T2 sequence (P30542 whole entry): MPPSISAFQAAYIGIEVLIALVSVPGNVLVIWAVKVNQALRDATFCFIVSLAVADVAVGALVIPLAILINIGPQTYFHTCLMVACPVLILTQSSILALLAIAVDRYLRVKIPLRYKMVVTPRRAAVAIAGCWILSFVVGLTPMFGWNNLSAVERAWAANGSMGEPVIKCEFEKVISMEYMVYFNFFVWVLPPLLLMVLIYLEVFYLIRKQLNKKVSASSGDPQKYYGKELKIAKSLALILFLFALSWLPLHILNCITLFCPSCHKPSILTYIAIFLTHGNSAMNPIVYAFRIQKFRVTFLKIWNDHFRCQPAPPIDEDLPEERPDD

Row | SMILES | IC50
10 | COc1ccc2c(c1)c(CC(=O)OCC(=O)O)c(C)n2C(=O)c1ccc(Cl)cc1 [ACEMETACIN] | Not Active
11 | CC1(C)S[C@@H]2[C@H](NC(=O)[C@H](NC(=O)N3CCNC3=O)c3ccccc3)C(=O)N2[C@H]1C(=O)O [AZLOCILLIN] | Not Active
12 | CCOC(=O)OC(C)OC1=C(C(=O)Nc2ccccn2)N(C)S(=O)(=O)c2ccccc21 (stereo unspecified) [AMPIROXICAM] | Not Active

biological target: D(3) dopamine receptor (Homo sapiens, UniProt P35462); test: DRUGMATRIX: Dopamine D3 radioligand binding (ligand: [3H] Spiperone); format: cell membranes, CHO, Membrane; settings: cho
Sequence (P35462 whole entry): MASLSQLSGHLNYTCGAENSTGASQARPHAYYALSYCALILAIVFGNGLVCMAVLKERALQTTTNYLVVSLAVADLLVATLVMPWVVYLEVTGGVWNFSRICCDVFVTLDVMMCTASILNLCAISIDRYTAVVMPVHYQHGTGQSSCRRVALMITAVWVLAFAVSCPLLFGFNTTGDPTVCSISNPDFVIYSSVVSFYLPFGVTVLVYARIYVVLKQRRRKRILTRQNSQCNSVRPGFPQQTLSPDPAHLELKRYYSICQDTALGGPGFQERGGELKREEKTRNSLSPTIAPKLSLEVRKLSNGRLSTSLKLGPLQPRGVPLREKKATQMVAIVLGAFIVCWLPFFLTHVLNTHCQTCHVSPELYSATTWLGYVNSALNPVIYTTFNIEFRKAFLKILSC

Row | SMILES | IC50
13 | COc1ccc2c(c1)c(CC(=O)OCC(=O)O)c(C)n2C(=O)c1ccc(Cl)cc1 [ACEMETACIN] | Not Active
14 | CC1(C)S[C@@H]2[C@H](NC(=O)[C@H](NC(=O)N3CCNC3=O)c3ccccc3)C(=O)N2[C@H]1C(=O)O [AZLOCILLIN] | Not Active
15 | CCOC(=O)OC(C)OC1=C(C(=O)Nc2ccccn2)N(C)S(=O)(=O)c2ccccc21 (stereo unspecified) [AMPIROXICAM] | Not Active

test system: not listed separately; test: DRUGMATRIX: Phosphodiesterase PDE4 enzyme inhibition (substrate: [3H]cAMP + cAMP); settings: u-937; Not Active = under 50% inhibition at 10 µM

Row | SMILES | IC50 | Ki
16 | COc1ccc2c(c1)c(CC(=O)OCC(=O)O)c(C)n2C(=O)c1ccc(Cl)cc1 [ACEMETACIN] | Not Active | Not Active
17 | CC1(C)S[C@@H]2[C@H](NC(=O)[C@H](NC(=O)N3CCNC3=O)c3ccccc3)C(=O)N2[C@H]1C(=O)O [AZLOCILLIN] | Not Active | Not Active
18 | CCOC(=O)OC(C)OC1=C(C(=O)Nc2ccccn2)N(C)S(=O)(=O)c2ccccc21 (stereo unspecified) [AMPIROXICAM] | Not Active | Not Active

biological target: Mitogen-activated protein kinase 1 (Homo sapiens, UniProt P28482); test: DRUGMATRIX: Protein Serine/Threonine Kinase, ERK2 enzyme inhibition (substrate: Myelin Basic Protein); parameters: species or system Escherichia coli; settings: Not Active = under 50% inhibition at 10 µM
Sequence (P28482 whole entry): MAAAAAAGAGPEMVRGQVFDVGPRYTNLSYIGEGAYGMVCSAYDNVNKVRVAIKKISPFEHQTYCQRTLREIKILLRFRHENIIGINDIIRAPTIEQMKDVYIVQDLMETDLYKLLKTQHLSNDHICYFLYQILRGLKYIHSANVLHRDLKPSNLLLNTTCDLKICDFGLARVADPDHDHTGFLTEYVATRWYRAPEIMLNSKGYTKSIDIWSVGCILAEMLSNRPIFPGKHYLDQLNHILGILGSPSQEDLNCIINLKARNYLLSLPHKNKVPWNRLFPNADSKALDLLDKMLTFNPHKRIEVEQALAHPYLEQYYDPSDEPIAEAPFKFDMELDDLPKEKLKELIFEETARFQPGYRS

Row | SMILES | IC50
19 | COc1ccc2c(c1)c(CC(=O)OCC(=O)O)c(C)n2C(=O)c1ccc(Cl)cc1 [ACEMETACIN] | Not Active
20 | CC1(C)S[C@@H]2[C@H](NC(=O)[C@H](NC(=O)N3CCNC3=O)c3ccccc3)C(=O)N2[C@H]1C(=O)O [AZLOCILLIN] | Not Active
21 | CCOC(=O)OC(C)OC1=C(C(=O)Nc2ccccn2)N(C)S(=O)(=O)c2ccccc21 (stereo unspecified) [AMPIROXICAM] | Not Active

test system: not listed separately; test: DRUGMATRIX: Glutamate, NMDA, Agonism radioligand binding (ligand: [3H] CGP-39653); format: cell membranes, Rattus norvegicus, Wistar, Cerebral cortex, Membrane; settings: Not Active = under 50% inhibition at 10 µM

Row | SMILES | IC50 | Ki
22 | COc1ccc2c(c1)c(CC(=O)OCC(=O)O)c(C)n2C(=O)c1ccc(Cl)cc1 [ACEMETACIN] | Not Active | Not Active
23 | CC1(C)S[C@@H]2[C@H](NC(=O)[C@H](NC(=O)N3CCNC3=O)c3ccccc3)C(=O)N2[C@H]1C(=O)O [AZLOCILLIN] | Not Active | Not Active
24 | CCOC(=O)OC(C)OC1=C(C(=O)Nc2ccccn2)N(C)S(=O)(=O)c2ccccc21 (stereo unspecified) [AMPIROXICAM] | Not Active | Not Active

biological target: Platelet-activating factor receptor (Homo sapiens, UniProt P25105); test: biochemical; format: tissue-based; settings: platelet; also: in other assays of this panel Not Active means under 50% inhibition at 10 µM
Sequence (P25105 whole entry): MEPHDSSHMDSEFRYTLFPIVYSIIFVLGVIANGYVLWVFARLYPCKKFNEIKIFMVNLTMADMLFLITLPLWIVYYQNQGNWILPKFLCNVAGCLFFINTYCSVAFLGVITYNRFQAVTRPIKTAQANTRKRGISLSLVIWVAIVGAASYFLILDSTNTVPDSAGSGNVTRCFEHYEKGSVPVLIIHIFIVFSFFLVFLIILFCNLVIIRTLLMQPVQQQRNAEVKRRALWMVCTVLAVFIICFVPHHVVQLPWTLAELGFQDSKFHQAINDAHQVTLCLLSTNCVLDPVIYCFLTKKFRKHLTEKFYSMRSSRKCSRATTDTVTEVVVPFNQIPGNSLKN

Row | SMILES | IC50
25 | COc1ccc2c(c1)c(CC(=O)OCC(=O)O)c(C)n2C(=O)c1ccc(Cl)cc1 [ACEMETACIN] | Not Active
26 | CC1(C)S[C@@H]2[C@H](NC(=O)[C@H](NC(=O)N3CCNC3=O)c3ccccc3)C(=O)N2[C@H]1C(=O)O [AZLOCILLIN] | Not Active
27 | CCOC(=O)OC(C)OC1=C(C(=O)Nc2ccccn2)N(C)S(=O)(=O)c2ccccc21 (stereo unspecified) [AMPIROXICAM] | Not Active

biological target: T3, 3-hydroxy-3-methylglutaryl-coenzyme A reductase (Homo sapiens, UniProt P04035); test: not given; parameters: species or system Escherichia coli; settings: not given
T3 sequence (P04035 whole entry): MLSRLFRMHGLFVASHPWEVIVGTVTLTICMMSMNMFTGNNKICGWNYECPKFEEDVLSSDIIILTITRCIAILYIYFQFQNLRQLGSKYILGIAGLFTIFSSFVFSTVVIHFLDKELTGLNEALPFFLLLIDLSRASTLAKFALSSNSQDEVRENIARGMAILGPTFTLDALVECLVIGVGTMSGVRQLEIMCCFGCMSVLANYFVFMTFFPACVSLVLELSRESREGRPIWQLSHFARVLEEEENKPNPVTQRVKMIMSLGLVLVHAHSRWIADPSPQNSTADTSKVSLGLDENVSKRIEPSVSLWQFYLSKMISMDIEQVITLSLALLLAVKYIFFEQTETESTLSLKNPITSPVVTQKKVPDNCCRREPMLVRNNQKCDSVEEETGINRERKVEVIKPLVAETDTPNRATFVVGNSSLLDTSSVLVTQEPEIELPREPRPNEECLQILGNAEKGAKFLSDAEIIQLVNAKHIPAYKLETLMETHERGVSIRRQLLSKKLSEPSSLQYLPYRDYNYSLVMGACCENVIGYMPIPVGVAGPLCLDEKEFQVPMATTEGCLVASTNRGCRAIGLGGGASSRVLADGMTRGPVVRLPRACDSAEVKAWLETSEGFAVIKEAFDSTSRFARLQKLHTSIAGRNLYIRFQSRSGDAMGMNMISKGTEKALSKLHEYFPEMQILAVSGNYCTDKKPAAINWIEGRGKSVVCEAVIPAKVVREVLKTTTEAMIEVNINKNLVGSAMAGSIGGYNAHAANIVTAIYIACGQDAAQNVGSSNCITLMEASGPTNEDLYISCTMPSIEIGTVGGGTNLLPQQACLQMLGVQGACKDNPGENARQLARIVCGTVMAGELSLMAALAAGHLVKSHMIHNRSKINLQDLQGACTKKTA

Row | SMILES | IC50
28 | COc1ccc2c(c1)c(CC(=O)OCC(=O)O)c(C)n2C(=O)c1ccc(Cl)cc1 [ACEMETACIN] | Not Active
29 | CC1(C)S[C@@H]2[C@H](NC(=O)[C@H](NC(=O)N3CCNC3=O)c3ccccc3)C(=O)N2[C@H]1C(=O)O [AZLOCILLIN] | Not Active
30 | CCOC(=O)OC(C)OC1=C(C(=O)Nc2ccccn2)N(C)S(=O)(=O)c2ccccc21 (stereo unspecified) [AMPIROXICAM] | Not Active

biological target: T4, Alpha-1D adrenergic receptor (Homo sapiens, UniProt P25100); test: not given; format: cell membranes, HEK293, Membrane; settings: hek293; also: in other assays of this panel Not Active means under 50% inhibition at 10 µM
T4 sequence (P25100 whole entry): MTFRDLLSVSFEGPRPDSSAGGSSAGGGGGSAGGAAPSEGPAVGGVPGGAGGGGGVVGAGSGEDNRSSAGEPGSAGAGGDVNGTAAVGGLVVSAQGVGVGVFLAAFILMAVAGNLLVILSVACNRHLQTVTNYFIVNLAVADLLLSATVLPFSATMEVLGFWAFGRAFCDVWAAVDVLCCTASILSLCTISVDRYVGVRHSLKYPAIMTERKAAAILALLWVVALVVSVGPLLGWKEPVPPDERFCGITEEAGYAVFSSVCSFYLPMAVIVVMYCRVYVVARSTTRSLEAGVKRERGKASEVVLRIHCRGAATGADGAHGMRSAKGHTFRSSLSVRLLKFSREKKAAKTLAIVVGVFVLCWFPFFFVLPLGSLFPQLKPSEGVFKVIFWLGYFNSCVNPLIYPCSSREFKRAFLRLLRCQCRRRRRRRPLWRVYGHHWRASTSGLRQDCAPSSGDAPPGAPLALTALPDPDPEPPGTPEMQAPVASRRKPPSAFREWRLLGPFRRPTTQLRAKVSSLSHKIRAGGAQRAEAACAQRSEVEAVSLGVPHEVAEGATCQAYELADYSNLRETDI

Row | SMILES | IC50
31 | COc1ccc2c(c1)c(CC(=O)OCC(=O)O)c(C)n2C(=O)c1ccc(Cl)cc1 [ACEMETACIN] | Not Active
32 | CC1(C)S[C@@H]2[C@H](NC(=O)[C@H](NC(=O)N3CCNC3=O)c3ccccc3)C(=O)N2[C@H]1C(=O)O [AZLOCILLIN] | Not Active
33 | CCOC(=O)OC(C)OC1=C(C(=O)Nc2ccccn2)N(C)S(=O)(=O)c2ccccc21 (stereo unspecified) [AMPIROXICAM] | Not Active

test system: not listed separately; test: DRUGMATRIX: Glutamate, NMDA, Phencyclidine radioligand binding (ligand: [3H] TCP); format: cell membranes, Rattus norvegicus, Wistar, Cerebral cortex, Membrane; settings: Not Active = under 50% inhibition at 10 µM

Row | SMILES | IC50 | Ki
34 | COc1ccc2c(c1)c(CC(=O)OCC(=O)O)c(C)n2C(=O)c1ccc(Cl)cc1 [ACEMETACIN] | Not Active | Not Active
35 | CC1(C)S[C@@H]2[C@H](NC(=O)[C@H](NC(=O)N3CCNC3=O)c3ccccc3)C(=O)N2[C@H]1C(=O)O [AZLOCILLIN] | Not Active | Not Active
36 | CCOC(=O)OC(C)OC1=C(C(=O)Nc2ccccn2)N(C)S(=O)(=O)c2ccccc21 (stereo unspecified) [AMPIROXICAM] | Not Active | Not Active

biological target: Prostaglandin G/H synthase 1 (Homo sapiens, UniProt P23219); test: biochemical; format: tissue-based, Platelet; settings: platelet
Sequence (P23219 whole entry): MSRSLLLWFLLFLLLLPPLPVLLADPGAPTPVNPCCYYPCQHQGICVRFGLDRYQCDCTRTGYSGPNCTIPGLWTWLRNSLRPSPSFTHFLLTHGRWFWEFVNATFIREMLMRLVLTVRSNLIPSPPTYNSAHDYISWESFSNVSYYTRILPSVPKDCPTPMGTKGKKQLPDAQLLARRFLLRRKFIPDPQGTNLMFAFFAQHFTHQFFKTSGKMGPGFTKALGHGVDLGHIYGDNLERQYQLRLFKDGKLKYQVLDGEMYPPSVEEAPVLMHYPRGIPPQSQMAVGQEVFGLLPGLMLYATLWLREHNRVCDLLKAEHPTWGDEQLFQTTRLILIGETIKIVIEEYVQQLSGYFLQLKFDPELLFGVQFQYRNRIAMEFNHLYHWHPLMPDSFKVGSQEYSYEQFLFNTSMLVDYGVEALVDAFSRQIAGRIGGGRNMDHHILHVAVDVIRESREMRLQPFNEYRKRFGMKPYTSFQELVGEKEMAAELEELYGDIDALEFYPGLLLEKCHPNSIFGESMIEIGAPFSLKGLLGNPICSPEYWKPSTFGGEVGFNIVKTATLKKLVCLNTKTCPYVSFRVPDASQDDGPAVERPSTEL

Row | SMILES | IC50
37 | COc1ccc2c(c1)c(CC(=O)OCC(=O)O)c(C)n2C(=O)c1ccc(Cl)cc1 [ACEMETACIN] | Not Active
38 | CC1(C)S[C@@H]2[C@H](NC(=O)[C@H](NC(=O)N3CCNC3=O)c3ccccc3)C(=O)N2[C@H]1C(=O)O [AZLOCILLIN] | Not Active
39 | CCOC(=O)OC(C)OC1=C(C(=O)Nc2ccccn2)N(C)S(=O)(=O)c2ccccc21 (stereo unspecified) [AMPIROXICAM] | Not Active

Reference: ChEMBL document CHEMBL1909046, “DrugMatrix in vitro pharmacology data”
